Measured values published in ChEMBL document CHEMBL1201862, “PubChem BioAssay data set” (2004).
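Cultured in 96-well plates, cells were exposed to test compound for 48 hours across five concentrations. Here, GI50 denotes the concentration required for 50% inhibition of growth.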 Activity calls are given as the source filed them. Rule as the data show it: active = GI50 up to about 1.1 µM and inactive = higher.

Key:
Assay in all cases: growth of human tumour cells (NCI), 48 h
UACC-62 = system: UACC-62
SNB-19 = system: SNB-19
OVCAR-5 = system: OVCAR-5
ACHN = system: ACHN
HL-60 = system: HL-60
LOX IMVI = system: LOX IMVI
HOP-62 = system: HOP-62
HCT-15 = system: HCT-15
OVCAR-3 = system: OVCAR-3
RPMI-8226 = system: RPMI-8226
MDA-MB-231 = system: MDA-MB-231
K562 = system: K562
NCI-H460 = system: NCI-H460
SNB-75 = system: SNB-75
CCRF-CEM = system: CCRF-CEM
Hs-578T = system: Hs-578T
SK-MEL-2 = system: SK-MEL-2
HCT-116 = system: HCT-116
SK-OV-3 = system: SK-OV-3
SK-MEL-28 = system: SK-MEL-28
A549 = system: A549
DU-145 = system: DU-145
SK-MEL-5 = system: SK-MEL-5
BT-549 = system: BT-549
MDA-N = system: MDA-N
RXF 393 = system: RXF 393
T47D = system: T47D
PC-3 = system: PC-3
SW-620 = system: SW-620
OVCAR-4 = system: OVCAR-4
IGROV-1 = system: IGROV-1
A498 = system: A498
COLO 205 = system: COLO 205
HT-29 = system: HT-29
SF-295 = system: SF-295
KM12 = system: KM12
NCI/ADR-RES = system: NCI/ADR-RES
SF-268 = system: SF-268
SF-539 = system: SF-539
UACC-257 = system: UACC-257
SN12C = system: SN12C
NCI-H522 = system: NCI-H522
NCI-H23 = system: NCI-H23
NCI-H226 = system: NCI-H226
HOP-92 = system: HOP-92
Malme-3M = system: Malme-3M
SR = system: SR
MCF7 = system: MCF7
HCC 2998 = system: HCC 2998
MOLT-4 = system: MOLT-4
U-251 = system: U-251
UO-31 = system: UO-31
TK-10 = system: TK-10
M14 = system: M14
786-0 = system: 786-0
CAKI-1 = system: CAKI-1
MDA-MB-435 = system: MDA-MB-435
EKVX = system: EKVX
OVCAR-8 = system: OVCAR-8

## COc1ccc2c(c1)N=C(N)n1c(nc3ccccc31)S2
UACC-62
  GI50: 16.3 µM (inactive)
SNB-19
  GI50: 82 µM (inactive)
OVCAR-5
  GI50: 6.34 µM (inactive)
ACHN
  GI50: 21.3 µM (inactive)
HL-60
  GI50: 3.79 µM (inactive)
LOX IMVI
  GI50: 15.9 µM (inactive)
HOP-62
  GI50: 57.8 µM (inactive)
HCT-15
  GI50: 25.1 µM
OVCAR-3
  GI50: 22.2 µM (inactive)
RPMI-8226
  GI50: 4.47 µM (inactive)
MDA-MB-231
  GI50: 12.7 µM (inactive)
K562
  GI50: 10.9 µM (inactive)
NCI-H460
  GI50: 8.18 µM (inactive)
SNB-75
  GI50: 31.7 µM (inactive)
CCRF-CEM
  GI50: 2.99 µM (inactive)
Hs-578T
  GI50: 58.1 µM (inactive)
SK-MEL-2
  GI50: 7.98 µM (inactive)
HCT-116
  GI50: 3.65 µM (inactive)
SK-OV-3
  GI50: 30.5 µM (inactive)
SK-MEL-28
  GI50: 70.1 µM (inactive)
A549
  GI50: 30 µM (inactive)
DU-145
  GI50: 74.8 µM (inactive)
SK-MEL-5
  GI50: 7.29 µM (inactive)
BT-549
  GI50: 27.1 µM (inactive)
MDA-N
  GI50: 3.45 µM (inactive)
RXF 393
  GI50: 19.5 µM (inactive)
T47D
  GI50: 15.2 µM (inactive)
PC-3
  GI50: 7.24 µM (inactive)
SW-620
  GI50: 39.9 µM (inactive)
OVCAR-4
  GI50: 4.66 µM (inactive)
IGROV-1
  GI50: 16.1 µM (inactive)
A498
  GI50: 32.1 µM (inactive)
COLO 205
  GI50: 5.27 µM (inactive)
HT-29
  GI50: 3.96 µM (inactive)
SF-295
  GI50: 38.5 µM (inactive)
KM12
  GI50: 15.5 µM (inactive)
NCI/ADR-RES
  GI50: 19.2 µM (inactive)
SF-268
  GI50: 19.5 µM (inactive)
SF-539
  GI50: 34.6 µM (inactive)
UACC-257
  GI50: 11.8 µM (inactive)
SN12C
  GI50: 51.6 µM (inactive)
NCI-H522
  GI50: 12.2 µM (inactive)
NCI-H23
  GI50: 10.4 µM (inactive)
NCI-H226
  GI50: 45.8 µM (inactive)
HOP-92
  GI50: 11.7 µM (inactive)
Malme-3M
  GI50: 68.9 µM (inactive)
SR
  GI50: 5.52 µM (inactive)
MCF7
  GI50: 10.9 µM (inactive)
HCC 2998
  GI50: 48.9 µM (inactive)
MOLT-4
  GI50: 5.28 µM (inactive)
U-251
  GI50: 6.27 µM (inactive)
UO-31
  GI50: 12.2 µM (inactive)
TK-10
  GI50: > 100 µM (inactive)
M14
  GI50: 4.01 µM (inactive)
786-0
  GI50: 1.95 µM (inactive)

## NCCCNCCS
CAKI-1
  GI50: 51.8 µM (inactive)
ACHN
  GI50: > 100 µM (inactive)
LOX IMVI
  GI50: > 100 µM (inactive)
HOP-62
  GI50: > 100 µM (inactive)
HCT-15
  GI50: 74.3 µM
OVCAR-3
  GI50: > 100 µM (inactive)
MDA-MB-231
  GI50: > 100 µM (inactive)
NCI-H460
  GI50: > 100 µM (inactive)
SNB-75
  GI50: > 100 µM (inactive)
Hs-578T
  GI50: > 100 µM (inactive)
HCT-116
  GI50: > 100 µM (inactive)
SK-MEL-28
  GI50: > 100 µM (inactive)
DU-145
  GI50: > 100 µM (inactive)
BT-549
  GI50: > 100 µM (inactive)
MDA-N
  GI50: > 100 µM (inactive)
T47D
  GI50: > 100 µM (inactive)
PC-3
  GI50: > 100 µM (inactive)
IGROV-1
  GI50: > 100 µM (inactive)
A498
  GI50: > 100 µM (inactive)
NCI/ADR-RES
  GI50: > 100 µM (inactive)
SF-539
  GI50: > 100 µM (inactive)
NCI-H522
  GI50: 91.8 µM (inactive)
NCI-H23
  GI50: > 100 µM (inactive)
NCI-H226
  GI50: > 100 µM (inactive)
Malme-3M
  GI50: > 100 µM (inactive)
MCF7
  GI50: > 100 µM (inactive)
MDA-MB-435
  GI50: 65.5 µM (inactive)

## O=S(=O)(N/C(=N\O)Nc1ccc(Cl)cc1)c1cc2ccccc2s1
UACC-62
  GI50: 15.3 µM (inactive)
EKVX
  GI50: 12.9 µM (inactive)
SNB-19
  GI50: 17 µM (inactive)
CAKI-1
  GI50: 15.8 µM (inactive)
OVCAR-5
  GI50: 15.2 µM (inactive)
ACHN
  GI50: 16.4 µM (inactive)
HL-60
  GI50: 11.7 µM (inactive)
LOX IMVI
  GI50: 17.5 µM (inactive)
HOP-62
  GI50: 17.7 µM (inactive)
HCT-15
  GI50: 18 µM
OVCAR-3
  GI50: 15 µM (inactive)
MDA-MB-231
  GI50: 17.3 µM (inactive)
K562
  GI50: 27.9 µM (inactive)
NCI-H460
  GI50: 31.8 µM (inactive)
SNB-75
  GI50: 12.7 µM (inactive)
CCRF-CEM
  GI50: 21.9 µM (inactive)
Hs-578T
  GI50: 18.7 µM (inactive)
SK-MEL-2
  GI50: 15.8 µM (inactive)
HCT-116
  GI50: 16.6 µM (inactive)
SK-OV-3
  GI50: 16.7 µM (inactive)
SK-MEL-28
  GI50: 19.4 µM (inactive)
A549
  GI50: 18.7 µM (inactive)
DU-145
  GI50: 20.9 µM (inactive)
SK-MEL-5
  GI50: 16.3 µM (inactive)
BT-549
  GI50: 17.1 µM (inactive)
MDA-N
  GI50: 20.9 µM (inactive)
RXF 393
  GI50: 15.1 µM (inactive)
T47D
  GI50: 21.9 µM (inactive)
PC-3
  GI50: 14.5 µM (inactive)
SW-620
  GI50: 23.7 µM (inactive)
OVCAR-4
  GI50: 14.4 µM (inactive)
IGROV-1
  GI50: 13.5 µM (inactive)
COLO 205
  GI50: 15.2 µM (inactive)
HT-29
  GI50: 19.6 µM (inactive)
SF-295
  GI50: 20.1 µM (inactive)
KM12
  GI50: 22.3 µM (inactive)
NCI/ADR-RES
  GI50: 20.2 µM (inactive)
SF-268
  GI50: 15.2 µM (inactive)
SF-539
  GI50: 18.5 µM (inactive)
UACC-257
  GI50: 22 µM (inactive)
SN12C
  GI50: 18.6 µM (inactive)
NCI-H522
  GI50: 13.8 µM (inactive)
NCI-H23
  GI50: 16 µM (inactive)
NCI-H226
  GI50: 15.4 µM (inactive)
HOP-92
  GI50: 18.3 µM (inactive)
Malme-3M
  GI50: 15.6 µM (inactive)
MDA-MB-435
  GI50: 16.6 µM (inactive)
MOLT-4
  GI50: 16.2 µM (inactive)
U-251
  GI50: 15.2 µM (inactive)
UO-31
  GI50: 33.9 µM (inactive)
OVCAR-8
  GI50: 16.8 µM (inactive)
TK-10
  GI50: 19.4 µM (inactive)
M14
  GI50: 17.9 µM (inactive)
786-0
  GI50: 18.4 µM (inactive)
